These results are taken from patent US20170022171A1, “2,5-DISUBSTITUTED CYCLOPENTANECARBOXYLIC ACIDS AND THEIR USE” (Bayer Pharma Aktiengesellschaft, priority 2014, published 2017).

The target in this assay is T1, human macrophage elastase (HME/hMMP-12) (Homo sapiens, UniProt P39900).
T1 construct: 0.5 nM HME; purchased R&D Systems 917-MP
Kind of assay: In vitro HME inhibition test (standard or high-sensitivity). It is filed as biochemical. The settings on record: in some cases mean values. How it is done: The potency of the compounds according to the invention with respect to HME (MMP-12) is determined in an in vitro inhibition test. The HME-mediated amidolytic cleavage of a suitable peptide substrate leads to an increase in fluorescent light therein. The signal intensity of the fluorescent light is directly proportional to the enzyme activity. The active concentration of a test compound at which half the enzyme is inhibited (50% signal intensity of the fluorescent light) is reported as the IC50 value.
In a 384 hole microtiter plate, in a total test volume of 41 the test buffer (0.1 M HEPES pH 7.4, 0.15 M NaCl, 0.03 M CaCl2, 0.004 mM ZnCl2, 0.02 M EDTA, 0.005% Brij®), the enzyme (0.5 nM HME; from R&D Systems, 917-MP, autocatalytic activation according to the manufacturer's instructions) and the intramolecularly quenched substrate [5 μM Mca-Pro-Leu-Gly-Leu-Glu-Glu-Ala-Dap(Dnp)-NH2; Bachem, M-2670] are incubated in the absence and presence of the test substance (as a solution in DMSO) at 37° C. for two hours. The fluorescence intensity of the test mixtures is measured (excitation […], emission 393 nm). The IC50 values are ascertained by plotting the fluorescent light intensity against the active ingredient concentration.
In this case, an enzyme concentration ten times lower is used (final concentration, for example, 0.05 nM) in order to achieve an elevated test sensitivity. The incubation period chosen for the test is correspondingly longer (for example 16 hours).

T1 sequence (P39900 106-470): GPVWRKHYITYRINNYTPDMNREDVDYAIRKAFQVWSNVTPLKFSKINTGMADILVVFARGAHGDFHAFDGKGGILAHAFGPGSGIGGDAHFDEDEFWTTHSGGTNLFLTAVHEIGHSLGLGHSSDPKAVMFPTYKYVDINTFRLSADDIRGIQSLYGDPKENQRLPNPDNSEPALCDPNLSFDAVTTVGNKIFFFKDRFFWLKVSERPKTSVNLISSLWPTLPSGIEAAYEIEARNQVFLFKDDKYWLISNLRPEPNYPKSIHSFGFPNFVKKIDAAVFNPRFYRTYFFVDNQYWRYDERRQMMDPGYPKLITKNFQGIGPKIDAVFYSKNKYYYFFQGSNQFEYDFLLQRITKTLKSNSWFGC

As to `O=C(O)[C@H]1[C@H](Cn2nnc3ccc(C(F)(F)F)cc3c2=O)CC[C@@H]1C(=O)c1ccc(SCc2cccc(Cl)c2)cc1` (racemic) [Example 76, (+/−)-(1RS,2RS,5SR)-2-{4-[(3-Chlorobenzyl)sulphanyl]benzoyl}-5-{[4-oxo-6-(trifluoromethyl)-1,2,3-benzotriazin-3(4H)-yl]methyl}cyclopentanecarboxylic acid], the concentration for half-maximal inhibition (IC50) was 0.1 nM. On to `O=C(O)[C@H]1[C@H](Cn2nnc3ccc(C(F)(F)F)cc3c2=O)CC[C@@H]1C(=O)c1ccc(OCc2cccc(Cl)c2)cc1` (racemic) [Example 21, (+/−)-(1RS,2RS,5SR)-2-{4-[(3-Chlorobenzyl)oxy]benzoyl}-5-{[4-oxo-6-(trifluoromethyl)-1,2,3-benzotriazin-3(4H)-yl]methyl}cyclopentanecarboxylic acid], for which the IC50 was determined as 0.045 nM. Regarding `O=C(O)[C@@H]1[C@@H](Cn2nnc3ccc(C(F)(F)F)cc3c2=O)CC[C@H]1C(=O)c1ccc(SCc2ccc(Cl)c(Cl)c2)cc1` (single isomer, unassigned) [Example 81, (−)-(1RS,2RS,5SR)-2-{4-[(3,4-Dichlorobenzyl)sulphanyl]benzoyl}-5-{[4-oxo-6-(trifluoromethyl)-1,2,3-benzotriazin-3(4H)-yl]methyl}cyclopentanecarboxylic acid], the half-maximal inhibitory concentration (IC50) amounted to 25 nM. To `CCCCCOc1ccc(C(=O)[C@H]2CC[C@@H](Cn3nnc4ccc(C(F)(F)F)cc4c3=O)[C@@H]2C(=O)O)cc1` (racemic) [Example 63, (+/−)-(1RS,2SR,5RS)-2-{[4-Oxo-6-(trifluoromethyl)-1,2,3-benzotriazin-3(4H)-yl]methyl}-5-[4-(pentyloxy)benzoyl]cyclopentanecarboxylic acid] belongs 0.015 nM; to `Cc1ccc2nnn(C[C@H]3CC[C@@H](C(=O)c4ccc(OCc5cccc(Cl)c5)cc4)[C@@H]3C(=O)O)c(=O)c2c1` (single isomer, unassigned) [Example 105, (−)-(1RS,2RS,5SR)-2-{4-[(3-Chlorobenzyl)oxy]benzoyl}-5-[(6-methyl-4-oxo-1,2,3-benzotriazin-3(4H)-yl)methyl]cyclopentanecarboxylic acid], 14 nM.

On to `O=C(O)[C@H]1[C@H](Cn2nnc3ccc(C(F)(F)F)cc3c2=O)CC[C@@H]1C(=O)c1ccc(OCCc2ccccc2)cc1` (racemic) [Example 36, (+/−)-(1RS,2SR,5RS)-2-{[4-Oxo-6-(trifluoromethyl)-1,2,3-benzotriazin-3(4H)-yl]methyl}-5-[4-(2-phenylethoxy)benzoyl]cyclopentanecarboxylic acid], for which the half-maximal inhibitory concentration (IC50) stood at 0.13 nM. The same measure for `O=C(O)[C@@H]1[C@@H](Cn2nnc3ccc(C(F)(F)F)cc3c2=O)CC[C@H]1C(=O)c1ccc(OCC2CCC2)cc1` (single isomer, unassigned) [Example 48, (−)-(1RS,2RS,5SR)-2-[4-(Cyclobutylmethoxy)benzoyl]-5-{[4-oxo-6-(trifluoromethyl)-1,2,3-benzotriazin-3(4H)-yl]methyl}cyclopentanecarboxylic acid]: 290 nM. Compound `O=C(O)[C@@H]1[C@@H](Cn2nnc3ccc(C(F)(F)F)cc3c2=O)CC[C@H]1C(=O)c1ccc(OCc2cccc(Cl)c2)cc1` (single isomer, unassigned) [Example 22, (−)-(1RS,2RS,5SR)-2-{4-[(3-Chlorobenzyl)oxy]benzoyl}-5-{[4-oxo-6-(trifluoromethyl)-1,2,3-benzotriazin-3(4H)-yl]methyl}cyclopentanecarboxylic acid] registered a 50% inhibitory concentration (IC50) of 170 nM.

`CCCCOc1ccc(C(=O)[C@@H]2CC[C@H](Cn3nnc4ccc(C(F)(F)F)cc4c3=O)[C@H]2C(=O)O)cc1` (single isomer, unassigned) [Example 68, (−)-(1RS,2RS,5SR)-2-(4-Butoxybenzoyl)-5-{[4-oxo-6-(trifluoromethyl)-1,2,3-benzotriazin-3(4H)-yl]methyl}cyclopentanecarboxylic acid] returned an IC50 of 2.1 nM.

For the compound `O=C(O)[C@@H]1[C@@H](Cn2nnc3ccc(C(F)(F)F)cc3c2=O)CC[C@H]1C(=O)c1ccc(OCCc2ccccc2)cc1` (single isomer, unassigned) [Example 37, (+)-(1RS,2SR,5RS)-2-{[4-Oxo-6-(trifluoromethyl)-1,2,3-benzotriazin-3(4H)-yl]methyl}-5-[4-(2-phenylethoxy)benzoyl]cyclopentanecarboxylic acid], the IC50 is 0.08 nM. To `Cc1ccc2nnn(C[C@H]3CC[C@@H](C(=O)c4ccc(OCc5ccc(F)cc5)cc4)[C@@H]3C(=O)O)c(=O)c2c1` (single isomer, unassigned) [Example 95, (+)-(1RS,2RS,5SR)-2-{4-[(4-Fluorobenzyl)oxy]benzoyl}-5-[(6-methyl-4-oxo-1,2,3-benzotriazin-3(4H)-yl)methyl]cyclopentanecarboxylic acid] belongs 0.025 nM; to `CC(C)CCOc1ccc(C(=O)[C@@H]2CC[C@H](Cn3nnc4ccc(C(F)(F)F)cc4c3=O)[C@H]2C(=O)O)cc1` (single isomer, unassigned) [Example 62, (−)-(1RS,2RS,5SR)-2-[4-(3-Methylbutoxy)benzoyl]-5-{[4-oxo-6-(trifluoromethyl)-1,2,3-benzotriazin-3(4H)-yl]methyl}cyclopentanecarboxylic acid], 4.7 nM; to `O=C(O)[C@@H]1[C@@H](Cn2nnc3ccc(C(F)(F)F)cc3c2=O)CC[C@H]1C(=O)c1ccc(OCc2cccc(N3CCOC3=O)c2)cc1` (single isomer, unassigned) [Example 34, (−)-(1RS,2RS,5SR)-2-(4-{[3-(2-Oxo-1,3-oxazolidin-3-yl)benzyl]oxy}benzoyl)-5-{[4-oxo-6-(trifluoromethyl)-1,2,3-benzotriazin-3(4H)-yl]methyl}cyclopentanecarboxylic acid], 160 nM. The same measure for `CCCCCOc1ccc(C(=O)[C@@H]2CC[C@H](Cn3nnc4ccccc4c3=O)[C@H]2C(=O)O)cc1` (single isomer, unassigned) [Example 9, (−)-(1RS,2SR,5RS)-2-[(4-Oxo-1,2,3-benzotriazin-3(4H)-yl)methyl]-5-[4-(pentyloxy)benzoyl]cyclopentanecarboxylic acid]: 145 nM; for `CCCOc1ccc(C(=O)[C@H]2CC[C@@H](Cn3nnc4ccc(C(F)(F)F)cc4c3=O)[C@@H]2C(=O)O)cc1` (racemic) [Example 69, (+/−)-(1RS,2SR,5RS)-2-{[4-Oxo-6-(trifluoromethyl)-1,2,3-benzotriazin-3(4H)-yl]methyl}-5-(4-propoxybenzoyl)cyclopentanecarboxylic acid]: 0.094 nM. With `O=C(O)[C@@H]1[C@@H](Cn2nnc3ccc(C(F)(F)F)cc3c2=O)CC[C@H]1C(=O)c1ccc(SCc2cccc(Cl)c2)cc1` (single isomer, unassigned) [Example 78, (−)-(1RS,2RS,5SR)-2-{4-[(3-Chlorobenzyl)sulphanyl]benzoyl}-5-{[4-oxo-6-(trifluoromethyl)-1,2,3-benzotriazin-3(4H)-yl]methyl}cyclopentanecarboxylic acid], the IC50 was 8.8 nM. Compound `CCCCCOc1ccc(C(=O)[C@@H]2CC[C@H](Cn3nnc4ccccc4c3=O)[C@H]2C(=O)O)cc1` (single isomer, unassigned) [Example 8, (+)-(1RS,2SR,5RS)-2-[(4-Oxo-1,2,3-benzotriazin-3(4H)-yl)methyl]-5-[4-(pentyloxy)benzoyl]cyclopentanecarboxylic acid] showed a half-maximal inhibitory concentration (IC50) of 0.21 nM.

On to `Cc1ccc2nnn(C[C@@H]3CC[C@H](C(=O)c4ccc(OCc5ccc(F)cc5)cc4)[C@H]3C(=O)O)c(=O)c2c1` (racemic) [Example 94, (+/−)-(1RS,2RS,5SR)-2-{4-[(4-Fluorobenzyl)oxy]benzoyl}-5-[(6-methyl-4-oxo-1,2,3-benzotriazin-3(4H)-yl)methyl]cyclopentanecarboxylic acid], for which the half-inhibitory concentration (IC50) was 0.055 nM. The same measure for `CCCCOc1ccc(C(=O)[C@H]2CC[C@@H](Cn3nnc4ccccc4c3=O)[C@@H]2C(=O)O)cc1` (racemic) [Example 10, (+/−)-(1RS,2RS,5SR)-2-(4-Butoxybenzoyl)-5-[(4-oxo-1,2,3-benzotriazin-3 (4H)-yl)methyl]cyclopentanecarboxylic acid]: 0.36 nM; for `O=C(O)[C@H]1[C@H](Cn2nnc3ccc(C(F)(F)F)cc3c2=O)CC[C@@H]1C(=O)c1ccc(SCC2CCCCC2)cc1` (racemic) [Example 85]: 0.22 nM; for `O=C(O)[C@H]1[C@H](Cn2nnc3ccc(C(F)(F)F)cc3c2=O)CC[C@@H]1C(=O)c1ccc(OCCC2CCCCC2)cc1` (racemic) [Example 50, (+/−)-(1RS,2RS,5SR)-2-[4-(2-Cyclohexylethoxy)benzoyl]-5-{[4-oxo-6-(trifluoromethyl)-1,2,3-benzotriazin-3(4H)-yl]methyl}cyclopentanecarboxylic acid]: 0.036 nM.

Consider `CCCCCOc1ccc(C(=O)[C@@H]2CC[C@H](Cn3nnc4ccc(C(F)(F)F)cc4c3=O)[C@H]2C(=O)O)cc1` (single isomer, unassigned) [Example 65, (−)-(1RS,2SR,5RS)-2-{[4-Oxo-6-(trifluoromethyl)-1,2,3-benzotriazin-3(4H)-yl]methyl}-5-[4-(pentyloxy)benzoyl]cyclopentanecarboxylic acid], for which half-maximal inhibition (IC50) required 1.2 nM.

The IC50 is the concentration that inhibits the measured activity by half. Low readings indicate inhibition by little substance, high ones a need for much substance.
